Results taken from ChEMBL document CHEMBL1201862, “PubChem BioAssay data set” (2004).
Active and inactive are the calls of the source.

Tests used:
[1] = biological target: T1, Microphthalmia-associated transcription factor (Homo sapiens, UniProt O75030); experiment: reducers of TRPM1 reporter luminescence, concentration series – cell-based, SK-MEL-5, cherry-picked, set 3, MITF inhibitor project, dose response (AID 493073); format: functional;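 note: SK-MEL-5 melanoma cells with luciferase driven by the MITF target TRPM1 promoter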
T1 sequence (O75030 whole entry): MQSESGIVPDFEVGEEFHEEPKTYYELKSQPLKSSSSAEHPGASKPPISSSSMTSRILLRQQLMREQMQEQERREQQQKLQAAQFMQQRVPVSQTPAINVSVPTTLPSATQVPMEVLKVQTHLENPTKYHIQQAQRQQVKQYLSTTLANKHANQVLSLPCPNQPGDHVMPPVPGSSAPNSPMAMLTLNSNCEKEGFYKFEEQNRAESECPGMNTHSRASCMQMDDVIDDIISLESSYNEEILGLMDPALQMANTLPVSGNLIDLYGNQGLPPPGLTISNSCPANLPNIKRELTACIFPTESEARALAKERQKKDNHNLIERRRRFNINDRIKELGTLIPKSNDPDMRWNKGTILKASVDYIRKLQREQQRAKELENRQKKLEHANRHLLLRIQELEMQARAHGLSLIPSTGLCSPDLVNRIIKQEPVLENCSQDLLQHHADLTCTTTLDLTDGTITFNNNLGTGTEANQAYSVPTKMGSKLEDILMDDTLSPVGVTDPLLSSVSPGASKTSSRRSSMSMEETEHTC

[2] = loss of viability in HepG2 cells – cell-based, CellTiter-Glo, cherry-picked, cytotoxicity control for Shn3 inhibitor project, dose response (AID 624134); format: functional
[3] = non-specific 3'UTR reporter inhibition in Clone20-Shn3RL – cell-based, Renilla luciferase, cherry-picked, counter-screen for Shn3 inhibitor project, dose response (AID 624133); format: functional
INS1 = experiment: INS-1E survival protection against cytokine death – cell-based, luminescence, retest, dose response (AID 449756); format: functional; conditions: Rattus norvegicus;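 note: cell death triggered by IL-1 beta plus TNF-alpha plus IFN-gamma mixture; protective hits raise ATP signal compared with cytokine alone wells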
Nonstructural protein 1 = Nonstructural protein 1 (Influenza A virus, UniProt Q194T2); format: functional, Influenza A virus (A/California/07/2009(H1N1))
[4] = reduction of Shn3 3'UTR-driven luciferase in osteoblasts – cell-based, Clone20 osteoblasts, firefly luciferase, cherry-picked, dose response (AID 624132); format: functional;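 note: firefly luciferase luminescence from reporter carrying the Shn3 3'UTR in osteoblasts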
[5] = blockade of melanocortin 4 receptor signaling – cell-based, plate reader, cherry pick, counter-screen for LGR2 antagonist project, dose response (AID 743444); format: functional;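 note: transfected HEK 293 cells stimulated with alpha-MSH peptide; potency of inhibitors of the alpha-MSH evoked signal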
[6] = blockers of bursicon-stimulated LGR2 cAMP reporter – cell-based, HEK293, CRE-luciferase reporter, cherry pick, set 2, dose response (AID 743343); format: functional;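 note: transfected cells were stimulated with diluted bursicon conditioned medium after compound addition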
[7] = P. falciparum Dd2 growth inhibitors, dose response, SYBR Green, cherry-picked samples (AID 1159567); format: functional, cell-based
[8] = toxicity to human hepatoma HepG2 cells – cell-based, cherry-picked samples, cytotoxicity control, dose response (AID 1159577); format: functional
Estrogen receptor = biological target: T2, Estrogen receptor (Homo sapiens, UniProt P03372);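 note: potency for inhibiting coactivator peptide recruitment to the receptor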
T2 sequence (P03372 whole entry): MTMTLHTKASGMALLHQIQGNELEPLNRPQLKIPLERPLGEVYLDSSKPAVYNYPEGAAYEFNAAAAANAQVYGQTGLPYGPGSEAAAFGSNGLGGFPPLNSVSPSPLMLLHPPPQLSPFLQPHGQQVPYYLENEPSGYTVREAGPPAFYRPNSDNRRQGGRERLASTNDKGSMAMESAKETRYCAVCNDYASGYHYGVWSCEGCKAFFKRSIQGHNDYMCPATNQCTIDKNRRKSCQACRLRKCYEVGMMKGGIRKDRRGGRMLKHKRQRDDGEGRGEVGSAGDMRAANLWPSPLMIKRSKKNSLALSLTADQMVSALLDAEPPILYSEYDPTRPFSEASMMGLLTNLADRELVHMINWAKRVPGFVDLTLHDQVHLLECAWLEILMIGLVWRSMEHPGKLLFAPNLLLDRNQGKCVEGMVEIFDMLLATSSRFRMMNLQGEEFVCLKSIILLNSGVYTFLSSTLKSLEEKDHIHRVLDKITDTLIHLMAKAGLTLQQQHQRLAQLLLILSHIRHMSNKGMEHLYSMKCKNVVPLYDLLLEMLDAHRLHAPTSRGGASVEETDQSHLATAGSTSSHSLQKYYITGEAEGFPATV

[9] = HEK-293T viability loss after treatment – luminescence, T-cell screen hits, cytotoxicity control for TCR NF-kB inhibitor project, dose response (AID 489026); format: functional, cell-based;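 note: cells exposed to compound about 14 hours before the viability readout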
Mu-type opioid receptor = Mu-type opioid receptor (Homo sapiens, UniProt P35372); format: functional, cell-based;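 note: U2OS cells with beta-arrestin recruitment to OPRM1 by beta-gal complementation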
[10] = biological target: 5-hydroxytryptamine receptor 2A (Mus musculus, UniProt P35363); format: functional, cell-based;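 note: CHO-K1 cells with tagged receptor and beta-arrestin; agonist potency measured as compound-induced activation of the receptor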
[11] = biological target: T3, Voltage-gated N-type calcium channel alpha-1B subunit/Amyloid beta A4 precursor protein-binding family A member 1 (Homo sapiens, UniProt Q00975+Q02410); format: protein assay
[12] = biological target: T3, Voltage-gated N-type calcium channel alpha-1B subunit/Amyloid beta A4 precursor protein-binding family A member 1; format: protein assay; remark: listed apart in the source
[13] = viability loss in HEK293 cells – cell-based, plate reader, cherry-picked samples, cytotoxicity control, dose response (AID 743446); format: functional
[14] = biological target: Heat shock protein HSP 90-alpha (Homo sapiens, UniProt P07900); format: functional, organism-based
[15] = Luminescence Cell-Based Dose Retest to Confirm Inhibitors of Cancer Stem Cells. [Related pubchem assays (depositor defined):AID2717, AID2721]; format: functional, Homo sapiens; conditions: Homo sapiens

Sequence of Nonstructural protein 1 (Q194T2 whole entry): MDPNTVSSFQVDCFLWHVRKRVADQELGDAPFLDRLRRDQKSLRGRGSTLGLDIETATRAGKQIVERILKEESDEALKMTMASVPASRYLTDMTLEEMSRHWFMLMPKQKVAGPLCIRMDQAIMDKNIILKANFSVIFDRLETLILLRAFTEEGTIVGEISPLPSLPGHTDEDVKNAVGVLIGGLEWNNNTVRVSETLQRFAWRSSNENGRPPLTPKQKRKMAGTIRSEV
T3 sequence (Q00975 whole entry): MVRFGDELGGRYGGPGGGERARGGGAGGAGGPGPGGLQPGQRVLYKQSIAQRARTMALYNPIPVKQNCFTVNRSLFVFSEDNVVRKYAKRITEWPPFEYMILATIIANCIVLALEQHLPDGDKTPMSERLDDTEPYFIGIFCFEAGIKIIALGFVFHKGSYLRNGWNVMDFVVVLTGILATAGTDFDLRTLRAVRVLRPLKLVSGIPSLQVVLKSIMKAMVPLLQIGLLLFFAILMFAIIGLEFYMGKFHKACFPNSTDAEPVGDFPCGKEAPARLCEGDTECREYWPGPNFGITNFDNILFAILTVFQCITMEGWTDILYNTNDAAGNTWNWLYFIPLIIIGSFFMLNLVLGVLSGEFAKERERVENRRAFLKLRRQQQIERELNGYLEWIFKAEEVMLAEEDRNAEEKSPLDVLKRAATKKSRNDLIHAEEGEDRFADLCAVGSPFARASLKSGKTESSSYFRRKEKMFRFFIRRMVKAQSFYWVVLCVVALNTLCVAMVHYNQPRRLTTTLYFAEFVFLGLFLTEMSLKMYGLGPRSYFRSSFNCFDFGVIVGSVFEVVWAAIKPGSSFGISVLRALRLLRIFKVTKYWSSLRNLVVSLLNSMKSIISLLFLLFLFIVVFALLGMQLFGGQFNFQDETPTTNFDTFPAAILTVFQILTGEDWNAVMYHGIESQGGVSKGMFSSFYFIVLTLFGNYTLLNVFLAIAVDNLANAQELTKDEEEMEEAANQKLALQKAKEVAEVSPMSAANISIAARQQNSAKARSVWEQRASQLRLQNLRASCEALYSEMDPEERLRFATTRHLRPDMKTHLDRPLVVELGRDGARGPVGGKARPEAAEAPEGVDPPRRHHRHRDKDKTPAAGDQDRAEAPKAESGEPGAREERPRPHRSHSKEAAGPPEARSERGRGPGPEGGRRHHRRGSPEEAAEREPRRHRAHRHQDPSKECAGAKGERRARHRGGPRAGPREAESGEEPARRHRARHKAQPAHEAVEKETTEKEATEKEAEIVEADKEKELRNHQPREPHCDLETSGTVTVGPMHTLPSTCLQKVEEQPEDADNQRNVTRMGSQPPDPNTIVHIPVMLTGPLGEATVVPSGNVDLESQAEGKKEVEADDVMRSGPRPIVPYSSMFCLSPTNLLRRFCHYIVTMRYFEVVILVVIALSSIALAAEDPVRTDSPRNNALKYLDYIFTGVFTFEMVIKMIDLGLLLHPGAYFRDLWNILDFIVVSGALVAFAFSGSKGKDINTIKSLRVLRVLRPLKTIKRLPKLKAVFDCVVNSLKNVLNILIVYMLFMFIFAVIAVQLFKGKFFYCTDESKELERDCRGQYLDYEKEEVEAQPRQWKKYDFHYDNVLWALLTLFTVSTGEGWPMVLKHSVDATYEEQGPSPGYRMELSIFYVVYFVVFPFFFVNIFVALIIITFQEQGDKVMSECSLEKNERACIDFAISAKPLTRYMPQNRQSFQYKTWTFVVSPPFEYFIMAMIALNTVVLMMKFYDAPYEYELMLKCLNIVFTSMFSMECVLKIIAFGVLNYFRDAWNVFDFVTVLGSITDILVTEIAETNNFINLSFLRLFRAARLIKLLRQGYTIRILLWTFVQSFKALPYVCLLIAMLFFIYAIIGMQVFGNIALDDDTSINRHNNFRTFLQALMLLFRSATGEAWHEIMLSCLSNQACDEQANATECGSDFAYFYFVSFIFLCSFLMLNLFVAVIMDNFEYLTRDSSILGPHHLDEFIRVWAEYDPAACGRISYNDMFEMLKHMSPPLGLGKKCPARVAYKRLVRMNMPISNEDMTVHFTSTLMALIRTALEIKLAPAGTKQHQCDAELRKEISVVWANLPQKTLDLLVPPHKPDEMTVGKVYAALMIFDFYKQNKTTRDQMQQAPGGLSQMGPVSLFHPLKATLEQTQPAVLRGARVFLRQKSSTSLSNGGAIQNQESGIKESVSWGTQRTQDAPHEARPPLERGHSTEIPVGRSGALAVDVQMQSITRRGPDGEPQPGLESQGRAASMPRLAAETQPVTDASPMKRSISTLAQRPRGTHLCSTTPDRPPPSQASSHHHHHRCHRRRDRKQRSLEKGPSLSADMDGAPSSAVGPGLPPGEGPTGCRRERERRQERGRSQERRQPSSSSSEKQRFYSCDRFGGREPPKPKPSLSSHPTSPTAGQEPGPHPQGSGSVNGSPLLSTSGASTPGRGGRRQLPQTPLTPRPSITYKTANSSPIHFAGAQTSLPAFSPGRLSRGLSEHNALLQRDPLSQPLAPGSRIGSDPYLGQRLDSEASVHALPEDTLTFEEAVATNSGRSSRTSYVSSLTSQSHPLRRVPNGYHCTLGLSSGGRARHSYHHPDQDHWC
T3 sequence (Q02410 whole entry): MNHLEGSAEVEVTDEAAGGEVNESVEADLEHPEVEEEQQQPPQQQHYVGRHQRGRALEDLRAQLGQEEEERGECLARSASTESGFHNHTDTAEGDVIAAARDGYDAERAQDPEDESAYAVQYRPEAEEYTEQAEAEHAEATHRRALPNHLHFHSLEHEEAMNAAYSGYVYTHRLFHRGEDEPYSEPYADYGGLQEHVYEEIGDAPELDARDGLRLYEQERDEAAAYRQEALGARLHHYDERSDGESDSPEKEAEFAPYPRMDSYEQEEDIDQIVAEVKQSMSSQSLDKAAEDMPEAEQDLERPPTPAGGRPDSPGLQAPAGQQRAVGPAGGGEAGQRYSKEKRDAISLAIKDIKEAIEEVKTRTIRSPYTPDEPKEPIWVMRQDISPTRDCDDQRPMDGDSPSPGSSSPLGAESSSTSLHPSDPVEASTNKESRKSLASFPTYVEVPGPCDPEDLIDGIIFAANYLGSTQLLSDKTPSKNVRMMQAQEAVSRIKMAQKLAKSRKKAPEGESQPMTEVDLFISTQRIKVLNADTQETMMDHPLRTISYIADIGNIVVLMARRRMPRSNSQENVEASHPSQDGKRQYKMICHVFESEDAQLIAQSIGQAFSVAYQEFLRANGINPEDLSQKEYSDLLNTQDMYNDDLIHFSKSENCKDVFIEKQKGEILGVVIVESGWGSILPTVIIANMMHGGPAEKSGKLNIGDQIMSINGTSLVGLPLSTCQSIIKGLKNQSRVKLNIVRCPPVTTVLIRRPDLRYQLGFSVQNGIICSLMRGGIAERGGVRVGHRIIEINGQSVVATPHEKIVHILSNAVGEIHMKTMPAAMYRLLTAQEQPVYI
Sequence of 5-hydroxytryptamine receptor 2A (P35363 whole entry): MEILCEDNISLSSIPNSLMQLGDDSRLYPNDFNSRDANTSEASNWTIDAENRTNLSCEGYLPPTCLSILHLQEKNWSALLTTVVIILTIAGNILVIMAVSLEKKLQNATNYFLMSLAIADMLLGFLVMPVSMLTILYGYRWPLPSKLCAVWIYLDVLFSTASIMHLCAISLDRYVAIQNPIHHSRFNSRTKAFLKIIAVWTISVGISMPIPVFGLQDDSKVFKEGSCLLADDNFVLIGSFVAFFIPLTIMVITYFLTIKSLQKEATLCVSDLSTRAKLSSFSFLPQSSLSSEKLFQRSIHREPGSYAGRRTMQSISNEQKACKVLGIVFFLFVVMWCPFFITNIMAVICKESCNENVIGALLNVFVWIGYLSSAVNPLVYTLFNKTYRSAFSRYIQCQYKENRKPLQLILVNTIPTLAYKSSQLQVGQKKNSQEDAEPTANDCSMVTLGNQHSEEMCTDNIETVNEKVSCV
Sequence of Mu-type opioid receptor (P35372 whole entry): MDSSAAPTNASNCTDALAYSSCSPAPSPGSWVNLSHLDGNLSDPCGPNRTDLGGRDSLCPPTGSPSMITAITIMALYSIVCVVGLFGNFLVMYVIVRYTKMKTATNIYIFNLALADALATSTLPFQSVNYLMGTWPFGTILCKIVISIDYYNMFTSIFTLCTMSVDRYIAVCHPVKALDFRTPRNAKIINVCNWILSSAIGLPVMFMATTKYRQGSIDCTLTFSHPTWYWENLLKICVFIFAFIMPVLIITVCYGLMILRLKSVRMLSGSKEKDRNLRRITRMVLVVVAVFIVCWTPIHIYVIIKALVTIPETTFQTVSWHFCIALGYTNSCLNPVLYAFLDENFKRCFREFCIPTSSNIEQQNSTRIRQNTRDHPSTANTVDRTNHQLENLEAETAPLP

With O=C(Nc1nc(-c2ccccn2)cs1)c1ccc(F)c(S(=O)(=O)N2CCOCC2)c1 the AC50 [1] was 5.7 µM (active), the AC50 [2] was > 70 µM (inactive) and the AC50 [3] was 711 nM (active). For the same compound, the AC50 (INS1) was 1.59 µM (active), the IC50 (Nonstructural protein 1) was 7.88 µM (active) and the AC50 [4] was 1.32 µM (active).
With Cn1cccc1C(=O)OCC(=O)Nc1ccc2c(c1)OCCO2 the AC50 [5] was 14.8 µM (active) and the AC50 [6] was 11.3 µM (active).
With COc1ccccc1C#Cc1ccc([C@@H]2[C@@H](CO)N(C(=O)C3CCCC3)[C@H]2C#N)cc1 the AC50 [7] was 4.57 µM (active) and the AC50 [8] was > 39 µM (inactive).
For COc1ccc(NC(=O)CSc2nn3c(=O)c(C)nnc3s2)cc1, the IC50 (Nonstructural protein 1) was 8.25 µM (active).
In the case of C=CCn1c(COc2cccc(C)c2)nnc1SCC(=O)NC(=O)NCc1ccco1, the IC50 (Estrogen receptor) is reported as 14.8 µM (active).
In the case of COc1cc(-c2noc(C)c2/C=C/c2cccc([N+](=O)[O-])c2)cc(OC)c1OC, the IC50 [9] is reported as 68.5 µM (inactive).
In the case of COc1cccc(N2CCN(C(=O)c3cn(Cc4ccccc4)nc3-c3cccnc3)CC2)c1, the IC50 [9] is reported as > 80 µM (inactive).
In the case of O=C(c1ccco1)N1CCN(Cc2ccccc2F)CC1, the EC50 (Mu-type opioid receptor) is reported as 92.5 µM (inactive) and the EC50 [10] is reported as 7.48 µM (active).
For CC1=C(C(=O)O)N2C(=O)C(NC(=O)c3ccccc3Cl)C2SC1 (configuration not stated), the IC50 [11] was 0.749 µM (active) and the IC50 [12] was > 50 µM (inactive).
For CN(c1ccccc1)S(=O)(=O)c1cccc(NC(=O)c2cc(=O)c3ccccc3o2)c1, the AC50 [5] was 38.2 µM (active) and the AC50 [13] was > 52 µM (inactive).
For CCn1ccnc1CNCc1cn(-c2cc(C)ccc2C)nc1-c1ccccc1, the IC50 (Nonstructural protein 1) was 11.8 µM (active).
In the case of CCOC(=O)c1ccc(N2C(=O)C=CC2=O)cc1, the IC50 [11] is reported as 6.05 µM (active), the AC50 [14] is reported as 691 nM (active) and the IC50 [12] is reported as 2.46 µM (active).
For Nc1ccccc1N/C=C1\C(=O)NC(=O)N(CCC2=CCCCC2)C1=O, the AC50 [15] was 81.2 µM (active), the AC50 (INS1) was 28.2 µM (active) and the IC50 (Estrogen receptor) was > 50 µM (not active).
